# Laboratory results reported in paper PMC3357308 (Diabetes, 2012).
# Experiments:
# human 11βHSD1 [1] = target: T1, human 11βHSD1 (Homo sapiens, UniProt P28845); experiment: Competition with [3H]2-cortisone in HEK293/h11βHSD1 cells; assay type: cell-based; settings: [3H]2-cortisone 5 nmol/L, competitor 0–4,955 nmol/L, 6–24 h
# [2] = tested on: 11β-reductase and 11β-dehydrogenase activities; experiment: Cortisol/cortisone interconversion in the splanchnic circulation; assay type: in vivo, human; settings: adjusted for hepatic blood flow, n = 4
# 11β-dehydrogenase [3] = settings: extrapolated from generation of d3-cortisone, non–steady-state, adjusted for substrate concentration and volume of distribution; cited from earlier work
# human 11βHSD1 [4] = target: T1, human 11βHSD1; assay type: cell-based; settings: HEK293/h11βHSD1 cells, substrate 2 μmol/L, 1–24 h, n = 6
# 11β-dehydrogenase [5] = experiment: Primed 3-h d2-cortisone infusion before and after licorice; settings: without licorice, whole body, steady state, n = 3
# [6] = tested on: 11β-reductase and 11β-dehydrogenase activities; experiment: Cortisol/cortisone interconversion in subcutaneous adipose and skeletal muscle; assay type: in vivo, human; settings: arteriovenous difference adjusted for blood flow, n = 6; for Ra (net Ra for cortisone), skeletal muscle release: forearm
# [7] = In vivo pharmacokinetics of d2-cortisone after intravenous bolus; design: species or system human; settings: iv bolus 141 μg
# 11βHSD1 = settings: in vivo, d4-cortisol tracer; cited from earlier work
# T1 sequence (P28845 whole entry): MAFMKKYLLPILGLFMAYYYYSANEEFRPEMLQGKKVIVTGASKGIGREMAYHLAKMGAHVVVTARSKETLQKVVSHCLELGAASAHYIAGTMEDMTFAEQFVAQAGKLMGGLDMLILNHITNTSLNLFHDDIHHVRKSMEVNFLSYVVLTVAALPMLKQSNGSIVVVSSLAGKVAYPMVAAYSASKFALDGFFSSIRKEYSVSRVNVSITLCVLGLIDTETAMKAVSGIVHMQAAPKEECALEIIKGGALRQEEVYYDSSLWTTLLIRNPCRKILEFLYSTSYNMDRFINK
SMILES,Vmax for formation of [3H]2-cortisol in the presence of the steroid (human 11βHSD1 [1]) [pmol/10^5 cells/min],"Ra (net Ra for cortisone), splanchnic release [2] [nmol/min]",cortisone production rate (11β-dehydrogenase [3]) [nmol/min],production of d2-cortisol or cortisol from the substrate (human 11βHSD1 [4]) [pmol/10^5 cells/min],Net Ra of cortisone (11β-dehydrogenase [5]) [nmol/min],"Ra (net Ra for cortisone), subcutaneous adipose release [6] [pmol/100 g/min]","Ra (net Ra for cortisone), skeletal muscle release [6] [pmol/100 mL/min]",time tracer could be detected after injection ([7]; blood) [h],area under the curve ([7]; n = 3) [nmol/L per min],cortisol released by subcutaneous adipose 11βHSD1 (11βHSD1) [pmol/100 g tissue/min]
C[C@]12CCC(=O)C=C1CC[C@@H]1[C@@H]2C(=O)C[C@@]2(C)[C@H]1CC[C@]2(O)C(=O)CO [cortisone],0.73 ± 0.26,19.5 ± 2.8,24,0.41 ± 0.15,36,38.7 ± 5.8,15.2 ± 5.8,,,
[2H]C1([2H])[C@H](O)[C@@]2([2H])[C@@H](CCC3=CC(=O)CC[C@@]32C)[C@@H]2CC[C@](O)(C(=O)CO)[C@]21C [d3-cortisol],,,,,,,5.9 ± 1.8,,,
"[2H]C1C(=O)C=C2CC[C@H]3[C@@H]4CC[C@](O)(C(=O)CO)[C@@]4(C)CC(=O)[C@@H]3[C@@]2(C)C1[2H] (some centres unmarked) [d2-cortisone, 1,2-[^2H]2-Cortisone]",0.83 ± 0.34,,,0.17 ± 0.05,,,,1.5,494,
C[C@]12CCC(=O)C=C1CC[C@@H]1[C@@H]2[C@@H](O)C[C@@]2(C)[C@H]1CC[C@]2(O)C(=O)CO [cortisol],,,,,,,19.7 ± 4.1,,,~15
